Experimental data from patent US20250304537A1 (Repare Therapeutics Inc., priority 2022, published 2025).
Read-outs that look alike come from different tables or passages of the source.

Test system: PKMYT1 (CDK1 pThr14) in FUOV1 cells
Assay: PKMYT1 cell-based activity assay, CDK1 pThr14 AlphaLISA in FUOV1 cells
Conditions: read-out: FUOV-1 CDK1 pThr14 IC50
Protocol: To determine compound IC50 (PKMYT1 cell-based activity assay, CDK1 pThr14 AlphaLISA), FUOV1 cells were plated into a 96-well TC-treated culture plate at 50000 cells/well in a final volume of 100 μL of media. The plates were then allowed to equilibrate in a biological safety cabinet for 30 minutes before being placed in a humidified incubator at 37 C and 5% CO2 overnight. The next day, 2 μL of PKMYT1 inhibitors or DMSO were diluted in 400 μL of warmed culture media in a 96-well block using a Biomek FX liquid handler. Compounds were mixed in media and then 25 μL was dispensed into each well of the 96-well cell plate. Plates were centrifuged at 300 g for 10 seconds and then placed in the incubator for 2 hours. After the 2-hour incubation with compound, media was removed via aspiration using a multichannel pipette. 30 μL of 1× AlphaLISA lysis buffer (Perkin Elmer) supplemented with protease and phosphatase inhibitors as well as 1 mM PMSF, was added to each well. Plates were rotated at 500 g for 20 minutes to facilitate lysis. Plates were then sealed with aluminum foil and frozen at −80° C. for at least 1 hour. Lysates were thawed at 37° C. for 10 minutes, then 10 μL of each lysate was transferred in duplicate to a white 384-well assay plate. Antibody mixture was prepared in 1× AlphaLISA assay buffer (Perkin Elmer) containing antibodies (5 nM final concentration for rabbit pThr14-CDK1 from Abcam #ab58509 and mouse total CDK1 from ThermoFisher Scientific #33-1800). 5 μL of antibody mixture was added to each well of the assay plate. The assay plate was sealed and stored at 4° C. overnight. The next day, AlphaLISA bead mixture (Perkin Elmer) was prepared in 1× AlphaLISA assay buffer. Anti-rabbit IgG Acceptor (Perkin Elmer #AL104C) and anti-mouse IgG Donor beads (Perkin Elmer #AS104D) were prepared to a concentration of 80 μg/ml in assay buffer. 5 μL of bead mixture was added to each well of the assay plate (20 μg/ml final concentration for each bead). The plate was protected from light and incubated for 2 hours at room temperature. After a 2-hour incubation with beads, the plate was read using the Perkin Elmer EnVision Multimode plate reader with excitation at 680 nm and emission at 615 nm.

## Cc1ccc2[nH]ncc2c1-c1nc(-c2ccc(Cl)nc2Nc2ncccn2)nc(C(N)=O)c1N [Compound 759]
2 h, 2 h compound incubation
  IC50: 33 nM

## Cc1c(F)cc2[nH]ncc2c1-c1nc(-c2cccnc2NC2CC2)nc(C(N)=O)c1N [Compound 848]
2 h, 2 hours with compound
  IC50: 78 nM

## Cc1ccc2[nH]ncc2c1-c1nc(-c2ccc(C#N)cc2Nc2nccnc2C)nc(C(N)=O)c1N [Compound 751]
2 h, 2 h compound incubation
  IC50: 14 nM

## Cc1ccc2[nH]ncc2c1-c1nc(-c2cc(F)cnc2N[C@H]2CCOC2)nc(C(N)=O)c1N [Compound 711]
2 h, 2 h compound incubation
  IC50: 14 nM

## Cc1ccc2[nH]ncc2c1-c1nc(-c2cccnc2Nc2cccc(F)n2)nc(C(N)=O)c1N [Compound 659]
2 h, 2 h compound incubation
  IC50: 185 nM

## Cc1ccc2[nH]ncc2c1-c1nc(-c2cc(F)c(F)cc2NCC2(C#N)CC2)nc(C(N)=O)c1N [Compound 517]
2 h, 2 h compound incubation
  IC50: 139 nM

## COc1c(C(N)=O)nc(-c2cccnc2Nc2nc(F)ccc2F)nc1-c1c(C)ccc2[nH]ncc12 [Compound 963, 2-(2-((3,6-difluoropyridin-2-yl)amino)pyridin-3-yl)-5-methoxy-6-(5-methyl-1H-indazol-4-yl)pyrimidine-4-carboxamide]
2 h, 2 hours with compound
  IC50: > 10000 nM

## Cc1ccc2[nH]ncc2c1-c1nc(-c2ccc(F)cc2Nc2nccnc2C#N)nc(C(N)=O)c1N [Compound 701]
2 h, 2 h compound incubation
  IC50: 25 nM

## Cc1ccc2[nH]ncc2c1-c1nc(-c2cc(F)cnc2N[C@@H]2C[C@H]3CC[C@@H]2O3)nc(C(N)=O)c1N [Compound 898]
2 hours with compound
  IC50: 76 nM

## Cc1ccc2[nH]ncc2c1-c1nc(-c2cc(F)ccc2Nc2cnccn2)nc(C(N)=O)c1N [Compound 490]
2 h, 2 h compound incubation
  IC50: 51 nM

## Cc1cccc(-c2nc(C(N)=O)c(N)c(-c3c(C)ccc4[nH]ncc34)n2)c1Nc1ncccn1 [Compound 774]
2 h, 2 h compound incubation
  IC50: 563 nM

## Cc1nc(F)cc(Nc2cc(F)ccc2-c2nc(C(N)=O)c(N)c(-c3c(C)ccc4[nH]ncc34)n2)n1 [Compound 568]
2 h, 2 h compound incubation
  IC50: 15 nM

## Cc1ccc(F)c(Nc2ncc(F)cc2-c2nc(C(N)=O)c(N)c(-c3c(C)ccc(O)c3C)n2)n1 [Compound 715, 5-amino-2-[5-fluoro-2-[(3-fluoro-6-methyl-2-pyridyl)amino]-3-pyridyl]-6-(3-hydroxy-2,6-dimethyl-phenyl)pyrimidine-4-carboxamide]
2 h, 2 h compound incubation
  IC50: 9 nM

## Cc1cc(F)c2[nH]ncc2c1-c1nc(-c2cccnc2NC2CC2)nc(C(N)=O)c1N [Compound 871]
2 h, 2 hours with compound
  IC50: 39 nM

## Cc1ccc2[nH]ncc2c1-c1nc(-c2cccnc2N[C@@H]2CC[C@H](O)C2)nc(C(N)=O)c1N [Compound 783]
2 h, 2 h compound incubation
  IC50: 35 nM

## Cc1ccc2[nH]ncc2c1-c1nc(-c2cc(F)c(F)cc2NC2CNC2)nc(C(N)=O)c1N [Compound 486]
2 h, 2 h compound incubation
  IC50: 114 nM

## Cc1ccc(C)c(Nc2ncccc2-c2nc(C(N)=O)c(N)c(-c3c(C)ccc4[nH]ncc34)n2)n1 [Compound 707]
2 h, 2 h compound incubation
  IC50: 38 nM

## Cc1ccc2[nH]ncc2c1-c1nc(-c2cccnc2N[C@H]2CC[C@H](O)C2)nc(C(N)=O)c1N [Compound 785]
2 h, 2 h compound incubation
  IC50: 22 nM

## Cc1ccc2[nH]ncc2c1-c1nc(-c2ccncc2Nc2ncccc2F)nc(C(N)=O)c1N [Compound 938]
2 h, 2 hours with compound
  IC50: 2 nM

## Cc1ccc2[nH]ncc2c1-c1nc(-c2cc(F)ccc2Nc2cccnn2)nc(C(N)=O)c1N [Compound 489]
2 h, 2 h compound incubation
  IC50: 22 nM

## NC(=O)c1nc(-c2ccc(F)nc2Nc2ncccn2)nc(-c2c(Cl)ccc3[nH]ncc23)c1N [Compound 923]
2 h, 2 hours with compound
  IC50: 68 nM

## Cc1ccc2[nH]ncc2c1-c1nc(-c2ccc(F)nc2Nc2nc(F)ccc2F)nc(C(N)=O)c1N [Compound 921]
2 h, 2 hours with compound
  IC50: 4 nM

## Cc1ccc2[nH]ncc2c1-c1nc(-c2cc(F)ccc2Nc2ncc(F)cn2)nc(C(N)=O)c1N [Compound 492]
2 h, 2 h compound incubation
  IC50: 163 nM

## [2H]C([2H])([2H])c1ccc2[nH]ncc2c1-c1nc(-c2ccc(C(F)F)nc2Nc2nc(C)ncc2F)nc(C(N)=O)c1N [Compound 973]
2 h, 2 hours with compound
  IC50: 53 nM

## Cc1ccc(Cl)nc1Nc1ncccc1-c1nc(C(N)=O)c(N)c(-c2c(C)ccc3[nH]ncc23)n1 [Compound 742]
2 h, 2 h compound incubation
  IC50: 5 nM

## Cc1ccc2[nH]ncc2c1-c1nc(-c2cccnc2NC[C@@H]2CCCOC2)nc(C(N)=O)c1N [Compound 651]
2 h, 2 h compound incubation
  IC50: 130 nM

## Cc1ccc2[nH]ncc2c1-c1nc(-c2ccc(C#N)nc2Nc2ncccn2)nc(C(N)=O)c1N [Compound 745]
2 h, 2 h compound incubation
  IC50: 140 nM

## Cc1ccc2[nH]ncc2c1-c1nc(-c2cccnc2Nc2ccncc2)nc(C(N)=O)c1N [Compound 562]
2 h, 2 h compound incubation
  IC50: 24 nM

## COCCOc1ccc2oc3c(C(N)=O)c(N)c(-c4c(C)ccc5[nH]ncc45)cc3c2n1 [Compound 556]
2 h, 2 h compound incubation
  IC50: 132 nM

## Cc1ccc2[nH]ncc2c1-c1nc(-c2cccnc2Nc2cccnc2)nc(C(N)=O)c1N [Compound 595]
2 h compound incubation
  IC50: 1540 nM

## Cc1ccc2[nH]ncc2c1-c1nc(-c2cc(F)ccc2NS(=O)(=O)C(F)F)nc(C(N)=O)c1N [Compound 493]
2 h, 2 h compound incubation
  IC50: 681 nM

## Cc1cccnc1Nc1cc(F)ccc1-c1nc(C(N)=O)c(N)c(-c2c(C)ccc3[nH]ncc23)n1 [Compound 671]
2 h, 2 h compound incubation
  IC50: 164 nM

## Cc1cnc(Nc2cc(F)ccc2-c2nc(C(N)=O)c(N)c(-c3c(C)ccc4[nH]ncc34)n2)s1 [Compound 587]
2 h, 2 h compound incubation
  IC50: 172 nM

## Cc1ccc2[nH]ncc2c1-c1nc(-c2ncccc2NCC(F)(F)F)nc(C(N)=O)c1N [Compound 538]
2 h, 2 h compound incubation
  IC50: 33 nM

## Cc1ccc2[nH]ncc2c1-c1nc(-c2ccncc2NC(=O)C(C)(C)C)cc(C(N)=O)c1N [Compound 507, 5-amino-6-(5-methyl-1H-indazol-4-yl)-3′-pivalamido-[2,4′-bipyridine]-4-carboxamide]
2 h, 2 h compound incubation
  IC50: 166 nM

## Cc1ccc2[nH]ncc2c1-c1cc2c(oc3ccc(NC4CCOCC4)nc32)c(C(N)=O)c1N (atropisomer, axis not shown) [Compound 762]
2 h compound incubation
  IC50: 24 nM

## Cc1ccc2[nH]ncc2c1-c1nc(-c2cccnc2Nc2ncccc2CC#N)nc(C(N)=O)c1N [Compound 741]
2 h, 2 h compound incubation
  IC50: 155 nM

## Cc1c(F)cc2[nH]ncc2c1-c1nc(-c2cc(F)c(F)cc2NC(=O)C2(C(F)(F)F)CC2)nc(C(N)=O)c1N [Compound 509]
2 h, 2 h compound incubation
  IC50: 285 nM

## Cc1ccc2[nH]ncc2c1-c1nc(-c2cc(F)ccc2NS(=O)(=O)C(C)C)nc(C(N)=O)c1N [Compound 530]
2 h, 2 h compound incubation
  IC50: 59 nM

## Cc1ccnc(Nc2ncccc2-c2nc(C(N)=O)c(N)c(-c3c(C)ccc4[nH]ncc34)n2)n1 [Compound 565, 5-amino-6-(5-methyl-1H-indazol-4-yl)-2-(2-((4-methylpyrimidin-2-yl)amino)pyridin-3-yl)pyrimidine-4-carboxamide]
2 h, 2 h compound incubation
  IC50: 71 nM

## COc1nccnc1Nc1nc(Cl)ccc1-c1nc(C(N)=O)c(N)c(-c2c(C)ccc3[nH]ncc23)n1 [Compound 826]
2 h, 2 hours with compound
  IC50: 12 nM

## Cc1ccc2[nH]ncc2c1-c1nc(-c2ccc(C#N)cc2N[C@H]2C[C@@](C)(O)C2)nc(C(N)=O)c1N [Compound 822]
2 h, 2 hours with compound
  IC50: 172 nM

## Cc1c(F)cc2[nH]ncc2c1-c1nc(-c2cccnc2NCC(F)(F)F)nc(C(N)=O)c1N [Compound 849]
2 h, 2 hours with compound
  IC50: 174 nM

## Cc1ccc2[nH]ncc2c1-c1nc(-c2ccc(F)cc2Nc2ncccc2F)nc(C(N)=O)c1N [Compound 527]
2 h, 2 h compound incubation
  IC50: 11 nM

## Cc1cnc(Nc2cc(F)ccc2-c2nc(C(N)=O)c(N)c(-c3c(C)ccc4[nH]ncc34)n2)nc1 [Compound 523]
2 h, 2 h compound incubation
  IC50: 269 nM

## Cc1cnc(C)c(Nc2cc(F)ccc2-c2nc(C(N)=O)c(N)c(-c3c(C)ccc4[nH]ncc34)n2)n1 [Compound 719]
2 h, 2 h compound incubation
  IC50: 55 nM

## Cc1ccc2[nH]ncc2c1-c1nc(-c2ccc(F)cc2Nc2ncnc(C)c2C#N)nc(C(N)=O)c1N [Compound 639]
2 h, 2 h compound incubation
  IC50: 121 nM
